Measured values published in patent US7977361B2, “Nitro-imidazole hypoxia imaging agent” (Siemens Medical Solutions USA, Inc., priority 2007, dated 2011).
Entries after “also recorded” stand apart in the source; their conditions may differ.

Experiments:
[1] = Bio-distribution and bio-stability of Compound 1 in mice (LC/MS of blood, urine and organs after IV injection); type: in vivo; conditions: mouse; for tissue uptake at 30 min: 1 µmol per animal
Procedure: Method: Compound 1 was dissolved in DMSO to achieve a 100 mM stock solution. This was then diluted with 1× PBS containing 3% Solutol to achieve a concentration of 5 mM. 200 μl of 5 mM Compound 1 solution was injected into the tail vein in mice animals under isofluorane anesthesia. The in vivo uptake was two hours.
Blood and urine samples were collected at 30, 60, 90 and 120 minutes. Samples were immediately placed on ice to prevent compound degradation. After blood and urine sampling were completed at 120 minutes, the mouse was sacrificed by cervical dislocation. The following whole organs were harvested within 30-40 minutes in the following order; lower GI, upper GI, spleen, pancreas, gall bladder, liver, heart, kidneys, lungs, about 0.3 gram of muscle from both legs, about 0.4 gram of skin at the back, the entire brain and about 0.4 gram of fat inside the abdomen.
(§1) To the samples were added a proportional amount of lysis buffer (about 5 ml/gram tissue) before the tissue was homogenized using a powered homogenizer, 50 μL of lysis buffer was added to the blood and urine samples, followed by briefly vortexing. 200 μl of organ homogenate was sampled into a 1.5 ml Eppendorf tube. All samples were heated at 100° C. for 2 minutes to denature the proteins and then placed in ice for 15 minutes. Then 40 μl of formic acid was added to the organ samples and 20 μl was added to the blood and urine samples. All tubes were vortexed to achieve complete mixing of sample with acid. Samples were then placed on ice for 15 minutes before being centrifuged at 13000 rpm for 15 minutes at 4° C. 30 μl of the supernatant was transferred to an HPLC vial for MSD analysis.
(§2) A standard curve with a wide range of Compound 1 concentrations was prepared using the same method described above for tissue lysate treatment. The corresponding peak of the compound was identified first in the standards. The areas of the peaks were measured and converted into a standard correlation curve for estimation of Compound 1 concentration in the samples. The amount of compound in each sample is expressed as % injected dose/gram tissue (% ID/g tissue).

[2] = Plasma and urine pharmacology study of Compound 1 in rats (LC/MS after IV injection); type: in vivo; conditions: rat
Procedure: as §1, §2
Method: Compound 1 solution was prepared as described previously. One ml of 10 mM Compound 1 solution was injected intravenously (tail vein) into rats under isofluorane anesthesia. Blood and urine samples were collected before injection and at 15, 30, 60, 90 and 120 minutes after injection. Samples treatments and LC/MS measurement are the same as the mouse samples described in 1A.

[3] = tested on: Ls174T human colorectal adenocarcinoma; experiment: Cytotoxicity assay (MTT reduction), Ls174T cells; type: cell-based; conditions: 0-10000 nM, 24 hours
Procedure: (§3) Method: The assay is based on the ability of viable cells to reduce 3-[4,5-dimethylthiazol-2-yl]-2,5-diphenyl tetrazolium bromide to colored formazan crystals. Ls174T human colorectal adenocarcinoma, A172 human brain glioblastoma, MRC5 human normal lung fibroblast, and ALM12 mouse normal liver cell lines were selected for this study. Cells were cultured with different concentration of Compound 1 (0, 100, 500, 1000, 5000, 10000 nM) for 24 hours and then incubated with 0.5 mg/ml of 3-[4,5-dimethylthiazol-2-yl]-2,5-diphenyl tetrazolium bromide for 1 hour. Cells were lysed and formazan crystals were dissolved with 2-propanol for 1 hour and the optical density of the resultant colored 2-propanol was measured. The percentages of cell survival were calculated based on the optical densities.

[4] = tested on: A172 human brain glioblastoma; experiment: Cytotoxicity assay (MTT reduction), A172 cells; type: cell-based; conditions: A172, 0-10000 nM, 24 hours
Procedure: as §3

[5] = tested on: MRC5 human normal lung fibroblast; experiment: Cytotoxicity assay (MTT reduction), MRC5 cells; type: cell-based; conditions: MRC5, 0-10000 nM, 24 hours
Procedure: as §3

[6] = tested on: ALM12 mouse normal liver cell lines; experiment: Cytotoxicity assay (MTT reduction), ALM12 cells; type: cell-based; conditions: ALM12, 0-10000 nM, 24 hours
Procedure: as §3

O=[N+]([O-])c1nccn1Cc1cn(C(CO)CF)nn1 (stereo not drawn) [Compound 1, 3-Fluoro-2-(4-((2-nitro-1H-imidazol-1-yl)methyl)-1H-1,2,3-triazol-1-yl)propan-1-ol]
tissue uptake at 30 min ([1]; IV tail vein 200 μl of 5 mM, urine at 30 minutes, read-out: urine level): 95.6 %ID/g
blood clearance and urine excretion [1]: fast
urine excretion index (averaged urine % ID/g divided by blood % ID/g at 120 minute) [1]: 88.69
blood level ([1]; IV tail vein 200 μl of 5 mM, blood at 120 minutes): 0.59%
levels in gall bladder and GI system ([1]; organs harvested after 120 minutes): low
tissue uptake at 30 min ([1]; whole blood, IV tail vein 200 μl of 5 mM, blood at 30 minutes, read-out: blood level): 4.1 %ID/g
tissue uptake at 30 min ([2]; 10 µmol per animal, IV tail vein 1 ml of 10 mM, urine at 30 minute, read-out: urine level): 5.3 %ID/g
urine excretion and blood clearance [2]: fast
urine excretion index (averaged urine % ID/g divided by blood % ID/g at 120 minute) [2]: 36.62
tissue uptake at 30 min ([2]; whole blood, 10 µmol per animal, IV tail vein 1 ml of 10 mM, blood at 30 minutes, read-out: blood level): 0.67 %ID/g
tissue uptake at 120 min ([2]; whole blood, 10 µmol per animal, IV tail vein 1 ml of 10 mM, blood at 120 minutes, read-out: blood level): 0.15 %ID/g
cytotoxicity: numbers of viable cells vs untreated control cells [3]: no cytotoxic effects; also recorded: no difference
cytotoxicity: numbers of viable cells vs untreated control cells [4]: no cytotoxic effects; also recorded: no difference
cytotoxicity: numbers of viable cells vs untreated control cells [5]: no cytotoxic effects; also recorded: no difference
cytotoxicity: numbers of viable cells vs untreated control cells [6]: no difference
